Patent publication US20110201113A1, “Ex Vivo Progenitor and Stem Cell Expansion and Differentiation for Use in the Treatment of Disease of the Nervous System” (priority 2010, published 2011)

B1: Wnt1: wingless-type MMTV integration site family, member 1; growth factor, 20 ng/ml, R&D (protein, UniProt P04628 28-370, looked up)
Proto-oncogene Wnt-1: ANSSGRWWGIVNVASSTNLLTDSKSLQLVLEPSLQLLSRKQRRLIRQNPGILHSVSGGLQSAVRECKWQFRNRRWNCPTAPGPHLFGKIVNRGCRETAFIFAITSAGVTHSVARSCSEGSIESCTCDYRRRGPGGPDWHWGGCSDNIDFGRLFGREFVDSGEKGRDLRFLMNLHNNEAGRTTVFSEMRQECKCHGMSGSCTVRTCWMRLPTLRAVGDVLRDRFDGASRVLYGNRGSNRASRAELLRLEPEDPAHKPPSPHDLVYFEKSPNFCTYSGRLGTAGTAGRACNSSSPALDGCELLCCGRGHRTRTQRVTERCNCTFHWCCHVSCRNCTHTRVLHECL
B2: Wnt5a: wingless-type MMTV integration site family, member 15a (as printed); growth factor, 20 ng/ml, R&D (protein, UniProt P41221 62-380, looked up)
Protein Wnt-5a: IIGAQPLCSQLAGLSQGQKKLCHLYQDHMQYIGEGAKTGIKECQYQFRHRRWNCSTVDNTSVFGRVMQIGSRETAFTYAVSAAGVVNAMSRACREGELSTCGCSRAARPKDLPRDWLWGGCGDNIDYGYRFAKEFVDARERERIHAKGSYESARILMNLHNNEAGRRTVYNLADVACKCHGVSGSCSLKTCWLQLADFRKVGDALKEKYDSAAAMRLNSRGKLVQVNSRFNSPTTQDLVYIDPSPDYCVRNESTGSLGTQGRLCNKTSEGMDGCELMCCGRGYDQFKTVQTERCHCKFHWCCYVKCKKCTEIVDQFVCK

Assays:
Human neural stem cells [1] = experiment: Proliferation of neural stem cells treated with various bioactive molecules (alternating growth conditions, cell counting); format: cell-based; settings: second 8 weeks of 16; factor + 1% FBS alternating weekly with EGF, bFGF, LIF, no FBS
Procedure: hNSC's were alternately cultured in media containing a certain growth factor and serum (GF+FBS) or in the media containing EFL but lacking the presence of fetal bovine serum (EFL−FBS) as shown in FIG. 3. The media was changed on days 7 and 14 after plating the cells. This example utilized an initial incubation in EFL−FBS, followed by incubation in media including FBS. Experimental analysis of hNSCs was carried out on days 5, 10, 15, and 20, if not otherwise indicated.
Medium 2 (+GFs): DMEM/F12 (1:1), 2% B27 (Gibco), 1% Pen-Strep (PAA), 1% FBS (Gibco)+one of the combination of growth factors (CNTF, Jagged, SHH, TGFa, Wnt1, Wnt5A, or all)
7 different combinations of growth factors were used: 2.1. CNTF (20 ng/ml, Peprotech); 2.2. Jagged (20 ng/ml, Peprotech); 2.3. SHH (20 ng/ml, Peprotech); 2.4. TGFa (20 ng/ml, Peprotech); 2.5 Wnt1 (20 ng/ml, R&D); 2.6 Wnt5A (20 ng/ml, R&D); and 2.7 all above.
On days 5, 10, 15, and 20, if not otherwise indicated, neurospheres were dissociated using trypsin and single cells were counted using a hemocytometer. As a control, hNSCs were continuously grown in the absence of serum, but in the presence of growth factors EFL (control). The color code indicates the specific growth factor (GF) that was used in the GF+FBS mode. Abbreviations used: GF, growth factor; CNTF, ciliary neurotrophic factor; Jagged, SHH, sonic hedgehog; TGFα, transforming growth factor alpha; Wnt1, wingless-type MMTV integration site family, member 1; Wnt5A wingless-type MMTV integration site family, […]; or combined (CNTF, Jagged, SHH, TGFα, Wnt1, Wnt5A), E, EGF; F, bFGF; L, LIF.
Human neural stem cells are most routinely grown in medium supplemented with EGF and bFGF (and LIF). […] Cells were grown for 16 weeks and counted regularly every two weeks. […] Cells were counted 8 times. […] At the last time point analyzed, 5 times more cells were grown with control medium than under any other conditions.

Human neural stem cells [2] = experiment: Differentiation of neural stem cells to neurons and astrocytes (bTubIII immunostaining on laminin); format: cell-based; settings: cells taken after 8 and 12 weeks in culture, 14 days on laminin without factors; 3 random fields counted
Procedure: Next, how the stimulation of signaling pathways affects the commitment of human neural stem cells to neuronal and glial lineages was examined. For differentiation, samples of cells grown in all 8 conditions were removed from proliferating cell populations (after 8 and 12 weeks in culture) and plated onto laminin coated coverslips. All additional factors were excluded from culture medium and cells were grown for 14 days. Next, cells were fixed and stained for neural and glial markers as described previously. Examples of immunocytochemistry analysis can be seen on FIG. 8. […] No cells were detected as positive for oligodendrocyte marker O4. After immunostaining, cells from 3 random fields were counted and their differentiation potential was estimated according to the number of bTubIII positive cells present in samples. Results can be seen on FIG. 9. […] Cells grown with Wnt5a had the least percentage of bTubIII positive cells (33%), all the other conditions gave 41 to 47% of bTubIII positive cells (in control 45%).

Row | Molecule | support of cell growth (Human neural stem cells [1]) | percentage of bTubIII positive cells (Human neural stem cells [2]) [%]
1 | TGFa: transforming growth factor alpha, 20 ng/ml, Peprotech | slightly more efficient than the others | –
2 | Jagged-1: Jagged growth factor, 20 ng/ml, Peprotech | slightly more efficient than the others | –
3 | B1 | slightly more efficient than the others | –
4 | B2 | – | 33
